# Assay results from patent US5663139A, “Inhibitors of retroviral proteases” (Hoechst Aktiengesellschaft, priority 1992, dated 1997).
# Counter-ions that a name gives are not always drawn.
# Biological target: T1, HIV protease (Human immunodeficiency virus type 1 group M subtype B, UniProt P04585)
# T1 construct: The HIV protease is composed of 99 amino acids and evidently excises itself out of the pol polyprotein
# Experiment: HIV protease enzyme test (HPLC cleavage of heptapeptide substrate H-Ser-Phe-Asn-Phe-Opr-Gln-Ile-OH)
# Type: biochemical
# Details: inhibitor concentration at which the cleavage rate is halved, 37° C., 2 hours
# From the text: In particular, they inhibit HIV protease. Their enzyme-inhibitory effect, which is in the milli- to subnano-molar range, can be determined as follows.
# The substrates of the HIV protease which have been employed thus far include the heptapeptide: H-Ser-Phe-Asn-Phe-Pro-Gln-Ile-OH (SEQ ID NO. 1) (P. L. Darke et al., Biophys. Res. Commun. 156 (1988) 297-303). When this peptide is used as the substrate, the HIV protease cleaves it between the second Phe and the Pro.
# General instructions for testing inhibitors of the HIV proteases:
# 2 mg of H-Ser-Phe-Asn-Phe-Opr-Gln-Ile-OH (H-Opr-OH=5-oxaproline) (SEQ ID NO. 1) are dissolved in 1 ml of MGTE 15 buffer (use of ultrasonication if required) and this solution is subsequently filtered through a sterilizing filter (0.45 μm).
# 2.5 times the necessary quantity of inhibitor to give the desired molarity per ml of solution is weighed out and dissolved in DMSO (10% of the final volume). This solution is diluted with MGTE 15 buffer to the final volume and then filtered through a sterilizing filter (0.45 μm).
# 5 μl of the HIV protease solution are diluted with MGTE25 buffer as required.
# In each case, 10 μl of the substrate solution are pipetted into a test tube (16×100) having a screw cap. 10 μl of MGTE 15 buffer, which contains 10% DMSO, are pipetted in for the blank experiment. 10 μl of the inihibitor solutions are added to each of the remaining test tubes. The tubes are incubated at 37° C. for 5-10 minutes and 5 μl of the protease solution are then added to each sample. Following reaction at 37° C. for 2 hours, 10 or 20 μl (depending on the sensitivity of the HPLC equipment) are pipetted out from each sample, added to microvials and diluted with 120 μl of the HPLC eluant.
# e) Conditions for the HPLC Analysis
# Under the conditions chosen for this experiment, the heptapeptide is separated from the N-terminal tetrapeptide resulting from the enzymic cleavage. The % content of tetrapeptide peak related to the sum of tetrapeptide+heptapeptide gives the cleavage rate. The following IC50 values indicate the inhibitor concentrations at which the cleavage rate is halved: […]
row,Compound,IC50 [nM]
1,CCOP(=O)(C(Cc1ccccc1)NC(=O)[C@@H](NC(=O)OCc1ccccc1)C(C)C)C(O)C(Cc1ccccc1)NC(=O)[C@@H](NC(=O)OCc1ccccc1)C(C)C (some centres unmarked) [Example 3],70
2,"CC(C)[C@H](NC(=O)OCc1ccccc1)C(=O)NC(Cc1ccccc1)C(O)P(=O)(O)C(Cc1ccccc1)NC(=O)[C@@H](NC(=O)OCc1ccccc1)C(C)C (stereo partly drawn) [Example 4, 1-{2-[(Benzyloxycarbonyl-L-valyl)amino]-1-hydroxy-3-phenylpropyl},1-{-[(benzyloxycarbonyl-L-valyl)amino]-2-phenylethyl}phosphinic acid]",1.3
3,"CCOP(=O)(C(Cc1ccccc1)NC(=O)[C@@H](NC(=O)[C@@H](N)Cc1cccc2ccccc12)C(C)C)C(O)C(Cc1ccccc1)NC(=O)[C@@H](NC(=O)[C@@H](N)Cc1cccc2ccccc12)C(C)C (stereo partly drawn) [Example 7, Ethyl 1-{2-[(L-naphthylalanyl-L-valyl)amino]-1-hydroxy-3-phenylpropyl},1-{1-[(L-naphthylalanyl-L-valyl)amino]-2-phenylethyl}phosphinate bistrifluoroacetate]",15
4,"CC(C)[C@H](NC(=O)[C@@H](N)Cc1cccc2ccccc12)C(=O)NC(Cc1ccccc1)C(O)P(=O)(O)C(Cc1ccccc1)NC(=O)[C@@H](NC(=O)[C@@H](N)Cc1cccc2ccccc12)C(C)C (stereo partly drawn) [Example 8, 1-{2-[(L-Naphthylalanyl-L-valyl)amino]-1-hydroxy-3-phenylpropyl},1-{1-[(L-naphthylalanyl-L-valyl)amino]-2-phenylethyl}phosphinic acid dihydrobromide]",0.5
5,"CC(C)[C@H](NC(=O)C(Cc1cccc2ccccc12)CS(=O)(=O)C(C)(C)C)C(=O)NC(Cc1ccccc1)C(O)P(=O)(O)C(Cc1ccccc1)NC(=O)[C@@H](NC(=O)C(Cc1cccc2ccccc12)CS(=O)(=O)C(C)(C)C)C(C)C (stereo partly drawn) [Example 10, 1-{2-[((2S(tert-Butylsulfonylmethyl)-3-(1-naphthyl)-propionyl)-L-valyl)amino]-1-hydroxy-3-phenylpropyl},1-{1-[((2S(tert-butylsulfonylmethyl)-3-(1-naphthyl)propionyl)-L-valyl)amino]-2-phenylethyl}phosphinic acid]",4.2
